Measurements as given in patent US20200261445A1, “USE OF SENOLYTIC AGENTS TO ELIMINATE PERSISTENT HIV RESERVOIRS” (The George Washington University, priority 2017, published 2020).

What was measured:
Bcl-2 family proteins = conditions: selectivity within the Bcl-2 family, Table 1; cited from earlier work
[1] = tested on: HIV latency reservoir (resting CD4+ T cells); assay: HIVE assay with quantitative viral outgrowth (IUPM), three HIV latency reservoir models; format: cell-based; conditions: A-463 only (100 nM per FIG. 9F); all three models; p<0.01
Protocol: (§1) For each condition tested, up to 200×10^6 PBMC were thawed from leukapheresis material. An aliquot of PBMCs was stained with antibodies to CD3, CD4, CD8, HLA-DR, and CD69 for flow cytometry analysis (pre-selection sample). Resting CD4^+ T-cells were enriched from these PBMC by negative selection (Easysep CD4^+ T-cell enrichment kit, Stemcell Technologies) following the manufacturer's instructions. Cells were washed and re-suspended in 1 ml of 2% FBS PBS and an aliquot was stained as above (post-selection sample). To proceed, >98% pure resting CD4^+ T-cells in the negative fraction we required. […]
(§2) Co-cultures were harvested at 4 days post-initiation of co-culture. […] CD4^+ T-cells were then fixed in 2% paraformaldehyde, and analyzed by flow cytometry on an LSR-II instrument and with FlowJo software.
(§3) DNA quantification: 2×10^6 cells/condition were centrifuged and DNA, for ddPCR, was extracted from cell pellets using the Gentra Puregene kit (Qiagen), following the manufacturer's instructions. This DNA was then analyzed by digital droplet polymerase chain reaction (see below). Infectious virus quantification: The remaining cells, to be used for viral outgrowth assays, were incubated overnight in R10-50+4 nM IL-15SA (ALT-803) at a concentration of 2×10^6 cells/ml. These cells are then plated out in quantitative viral outgrowth assays (see below). […]

[2] = tested on: HIV latency reservoir (resting CD4+ T cells); assay: HIVE assay with ddPCR of total HIV DNA, three HIV latency reservoir models; format: cell-based; conditions: A-463 only (100 nM per FIG. 9E); all three models; p<0.01
Protocol: as §1, §2, §3

resting CD4+ T cells = assay: Cell cytotoxicity in HIV latency reservoir model cultures; format: cell-based, human; conditions: ABT-199 at 1 μM; not enough cells left to measure replication-competent virus (FIG. 9A)
Protocol: For each condition tested, up to 200×10^6 PBMC were thawed from leukapheresis material. An aliquot of PBMCs was stained with antibodies to CD3, CD4, CD8, HLA-DR, and CD69 for flow cytometry analysis (pre-selection sample). Resting CD4^+ T-cells were enriched from these PBMC by negative selection (Easysep CD4^+ T-cell enrichment kit, Stemcell Technologies) following the manufacturer's instructions. Cells were washed and re-suspended in 1 ml of 2% FBS PBS and an aliquot was stained as above (post-selection sample). To proceed, >98% pure resting CD4^+ T-cells in the negative fraction we required.
NK cells and CTL clones were added at 1:10 effector:target ratios, with or without the indicated latency reversing agents. Co-cultures were performed at 2×10^6 cells/ml in XVIVO-15 serum free medium (Lonza) that had been supplemented with penicillin-streptomycin, L-glutamine, 0.1 nM IL-7 (to support survival), 1 μM tenofovir, 1 μM nevirapine, 1 μM emtricitabine, 10 μM T20, 10 U/ml DNAse I (ProSpec) ([…]). […]
Co-cultures were harvested at 4 days post-initiation of co-culture. […] CD4^+ T-cells were then fixed in 2% paraformaldehyde, and analyzed by flow cytometry on an LSR-II instrument and with FlowJo software. […]

Bcl-xL = Bcl-xL (Homo sapiens, UniProt Q07817); conditions: Table 1; cited from earlier work
Chain of Bcl-xL (Q07817 whole entry): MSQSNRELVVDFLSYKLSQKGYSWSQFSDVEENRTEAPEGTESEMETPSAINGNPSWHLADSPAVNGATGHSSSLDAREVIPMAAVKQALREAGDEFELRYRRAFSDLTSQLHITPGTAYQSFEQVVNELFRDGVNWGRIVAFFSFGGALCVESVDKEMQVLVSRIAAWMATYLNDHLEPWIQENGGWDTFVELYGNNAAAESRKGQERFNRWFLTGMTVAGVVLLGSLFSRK

[3] = tested on: HIV latency reservoir models spiked into natural reservoirs; assay: 'Spiked' HIVE assay with QVOA (latency model cells spiked into natural reservoirs); format: cell-based; conditions: Bryostatin 10 nM, ABT-199 100 nM, HIV-specific CTLs, FIG. 10
Protocol: For experiments using CTL clones as effectors, clones were used at […] after their most recent re-stimulation. Specificity, functionality, and responsiveness of CTLs were confirmed by CD107a degranulation assays, as well as by HIV elimination assays the day before assay setup. Clones were washed extensively prior to addition to co-culture.
NK cells and CTL clones were added at 1:10 effector:target ratios, with or without the indicated latency reversing agents. […]
as §2, §3

Row | Molecule | Selective/pan (Bcl-2 family proteins) | Known Bcl-xL inhibition (Bcl-xL) | also measured
1 | CN(C)CC#Cc1ccc(OCCCc2sc(N3CCc4cccc(C(=O)Nc5nc6ccccc6s5)c4C3)nc2C(=O)O)c(F)c1 [A-1155463] | Selective | – | infectious replicative competent (IUPM) [1]: statistically significant reduction; total HIV DNA copies [2]: statistically significant reduction
2 | Cc1nn(C)c(COc2ccc(N3CCN(S(=O)(=O)N(C)C)CC3)cc2)c1-c1cccc2c(CCCOc3cccc4ccccc34)c(C(=O)O)n(CCN3CCOCC3)c12 [A-1210477] | Selective | – | –
3 | Cc1c(-c2ccc(N3CCc4cccc(C(=O)Nc5nc6ccccc6s5)c4C3)nc2C(=O)O)cnn1CC12CC3CC(CC(C3)C1)C2 [A-1331852] | Selective | – | –
4 | CC1(C)CCC(CN2CCN(c3ccc(C(=O)NS(=O)(=O)c4ccc(NCC5CCOCC5)c([N+](=O)[O-])c4)c(Oc4cnc5[nH]ccc5c4)c3)CC2)=C(c2ccc(Cl)cc2)C1 [ABT-199, Venetoclax] | – | – | cell cytotoxicity (resting CD4+ T cells): cell cytotoxicity
5 | Cc1cc2c(C(C)C)c(O)c(O)c(C=O)c2c(O)c1-c1c(C)cc2c(C(C)C)c(O)c(O)c(C=O)c2c1O [AT101] | Pan | Yes | –
6 | CC(C)C(C(=O)O)N1C(=O)/C(=C\c2ccc(Br)cc2)SC1=S (centres unmarked) [BH31-1] | Pan | Yes | –
7 | CCC/C=C/C=C/C(=O)O[C@H]1/C(=C/C(=O)OC)C[C@H]2C[C@H]([C@@H](C)O)OC(=O)C[C@H](O)C[C@@H]3C[C@H](OC(C)=O)C(C)(C)[C@](O)(C[C@@H]4C/C(=C/C(=O)OC)C[C@H](/C=C/C(C)(C)[C@]1(O)O2)O4)O3 [Bryostatin, bryostatin 1] | – | – | IUPM compared to the NoTx condition [3]: did not lead to significant decreases
8 | CC(C)=CCC[C@]1(C)C=Cc2c(O)c3c(c(CC=C(C)C)c2O1)O[C@]12C(=C[C@@H]4C[C@H]1C(C)(C)O[C@@]2(C/C=C(/C)C(=O)O)C4=O)C3=O [Gambogic Acid] | Pan | Yes | –
9 | Cc1cc2c(C(=O)NC[C@H](C)c3ccccc3)c(O)c(O)cc2c(O)c1-c1c(C)cc2c(C(=O)NC[C@H](C)c3ccccc3)c(O)c(O)cc2c1O [Sabutoclax] | Pan | Yes | –
10 | CC(C)c1ccccc1Cc1cc(C(=O)Nc2ccc(S(=O)(=O)c3ccccc3C(C)(C)C)cc2)c(O)c(O)c1O [TW-37] | Pan | Yes | –
11 | O=C(O)CSc1cc(NS(=O)(=O)c2ccc(Br)cc2)c2ccccc2c1O [UMI-77] | Selective | – | –
12 | ABT-263 | Pan | Yes | –
